{"source": "the SangsterLogP compilation", "key": {"[1]": {"assay": "method code SF-RC, from DOI: 10.1016/s0969-8051(00)00170-0, PMID: 11323238", "details": "pH 7.4"}, "[2]": {"assay": "method code SF, from DOI: 10.1021/jm000996o, PMID: 11087582", "details": "pH 7.2"}, "[3]": {"assay": "method code SF-AS, from PMID: 7170648", "details": "pH 7.4"}, "[4]": {"assay": "method code SF-RC, from DOI: 10.1016/j.nucmedbio.2014.05.001, PMID: 24969632", "details": "pH 7.4"}, "[5]": {"assay": "method code SF-HPLC, from DOI: 10.1016/j.ejps.2010.08.004, PMID: 20728535"}, "[6]": {"assay": "not given", "remark": "listed apart in the source"}, "[7]": {"assay": "not given", "remark": "listed apart in the source"}, "[8]": {"assay": "method code SF-HPLC, from DOI: 10.1002/jps.2600840603, PMID: 7562403", "details": "pH 7.4"}, "[9]": {"assay": "method code SF, from DOI: 10.1021/jm980124a, PMID: 9685245", "details": "pH 13.0"}, "[10]": {"assay": "method code SF, from DOI: 10.1016/s0960-894x(01)80459-5"}, "[11]": {"assay": "method code SF-HPLC, from DOI: 10.1021/js950484a, PMID: 9002474", "details": "pH 7.4"}, "[12]": {"assay": "not given", "remark": "listed apart in the source"}, "[13]": {"assay": "method code SF-HPLC, from Yao, Y.; Liao, Q.; Zeng, L.; Zhang, L.; Ma, Y.; Zeng, Y. (2009). Determination of the apparent oil-water partition coeffcient of neoandrographolide and effect of pH. Pharmacy Today, 19(10)8-10.", "details": "pH 6.0"}, "[14]": {"assay": "method code SF, from DOI: 10.1021/jm950645n, PMID: 8576912"}, "[15]": {"assay": "method code SF-HPLC, from DOI: 10.1016/j.ejps.2006.07.007, PMID: 16997537", "details": "pH 7.4"}, "[16]": {"assay": "method code SF, from DOI: 10.1016/j.bmc.2011.10.022, PMID: 22100260", "details": "pH 7.4"}, "[17]": {"assay": "method code SF-HPLC, from Xiong, Ð. (2009). Apparent partiton coefficient of hawthorn leaf flavonoids in phospholipids complex. Chinese Traditional Patent Medicine, 31(7)1075-1078."}, "[18]": {"assay": "method code SF-HPLC, from DOI: 10.1211/0022357001774101, PMID: 10813545"}, "[19]": {"assay": "method code SF, from DOI: 10.1021/jm020886c, PMID: 12852752", "details": "pH 7.4"}, "[20]": {"assay": "not given", "remark": "listed apart in the source"}, "[21]": {"assay": "not given", "remark": "listed apart in the source"}, "[22]": {"assay": "not given", "remark": "listed apart in the source"}, "[23]": {"assay": "not given", "remark": "listed apart in the source"}, "[24]": {"assay": "not given", "remark": "listed apart in the source"}, "[25]": {"assay": "not given", "remark": "listed apart in the source"}, "[26]": {"assay": "method code SF-EIA, from DOI: 10.1016/s0022-2275(20)42614-8, PMID: 2280184", "details": "pH 1.0"}, "[27]": {"assay": "not given", "remark": "listed apart in the source"}, "[28]": {"assay": "method code SF-HPLC, from DOI: 10.1211/146080899128734820", "details": "pH 2.0"}, "[29]": {"assay": "method code SF, from DOI: 10.4103/0250-474x.119813, PMID: 24302794", "details": "pH 7.4"}, "[30]": {"assay": "method code SF-RC, from DOI: 10.1021/acs.jmedchem.6b01291.s001, PMID: 27696839", "details": "pH 7.4"}, "[31]": {"assay": "method code SF-RC, from DOI: 10.2174/1874471011003010009, PMID: 20657759", "details": "pH 7.4"}, "[32]": {"assay": "from Medić-Šarić, M; Mornar, A.; Badovinac-Črnjević, T; Jasprica, I. (2004). Experimental and calculation procedures for molecular lipophilicity: A comparative study for …", "details": "pH 7.4"}, "[33]": {"assay": "method code SF-HPLC, from DOI: 10.1002/jlac.1995199512306"}, "[34]": {"assay": "not given", "remark": "listed apart in the source"}, "[35]": {"assay": "method code SF-HPLC, from DOI: 10.1002/jps.2600800905, PMID: 1800703", "details": "pH 7.0"}, "[36]": {"assay": "not given", "remark": "listed apart in the source"}, "[37]": {"assay": "method code SF-AS, from PMID: 7460030", "details": "pH 7.3"}}, "data": [{"smiles": "COc1cc2ncnc(N3CCC(n4c(=O)c5cc(C)ccc5n(C)c4=O)CC3)c2cc1OC", "values": [{"measurement": "logD", "setting": "[1]", "value": 3.14}]}, {"smiles": "Cc1cn(C2CC(N=[N+]=[N-])C(COP(=O)(OCCSC(=O)C(C)(C)C)OCCSC(=O)C(C)(C)C)O2)c(=O)[nH]c1=O", "note": "(stereo not drawn)", "values": [{"measurement": "logD", "setting": "[2]", "value": 3.73}]}, {"smiles": "CCN(Cc1cc(Nc2ccnc3cc(Cl)ccc23)ccc1O)C(=O)N1CCN(C)CC1", "values": [{"measurement": "logD", "setting": "[3]", "value": 3.43}]}, {"smiles": "O=C(OC(C(F)(F)F)C(F)(F)F)N1CCC(C(O)(c2ccc3c(c2)OCO3)c2ccc3c(c2)OCO3)CC1", "values": [{"measurement": "logD", "setting": "[4]", "value": 4.67}]}, {"smiles": "CCCCCCCCCCCCCCCCCC(=O)OC[C@@H]1O[C@H](n2ccc(N)nc2=O)CS1", "values": [{"measurement": "logP", "setting": "[5]", "value": 1.82}]}, {"smiles": "CC(=O)OC1C(c2ccc(=O)oc2)[C@@]2(C)CC[C@H]3[C@@H](CC[C@@H]4CC(O)CC[C@@]43C)[C@]23OC13", "note": "(stereo partly drawn)", "values": [{"measurement": "logP", "value": 3.27}]}, {"smiles": "O=C(CCCCCCCCCCn1ccnc1[N+](=O)[O-])Nc1ccc(-c2nc3ccccc3s2)cc1", "values": [{"measurement": "logP", "setting": "[6]", "value": 1.99}]}, {"smiles": "CC(=O)OCC(=O)[C@@]1(O)[C@H](C)C[C@H]2[C@@H]3CCC4=CC(=O)C=C[C@]4(C)[C@@]3(F)[C@@H](O)C[C@@]21C", "values": [{"measurement": "logP", "setting": "[7]", "value": 2.59}]}, {"smiles": "CCCC1O[C@@H]2C[C@H]3[C@@H]4CCC5=CC(=O)C=C[C@]5(C)[C@H]4[C@@H](O)C[C@]3(C)[C@]2(C(=O)CO)O1", "note": "(stereo partly drawn)", "values": [{"measurement": "logD", "setting": "[8]", "value": 3.55}]}, {"smiles": "CCC(C)c1ccc(N2CCCN(c3ccc(C(C)CC)cc3)C2=N)cc1", "note": "(stereo not drawn)", "values": [{"measurement": "logD", "setting": "[9]", "value": 5.28}]}, {"smiles": "CCCCCCOP(=O)(OCC1CC(O)C(n2cnc3c(N)ncnc32)O1)OCC1OC(n2cc(C)c(=O)[nH]c2=O)CC1N=[N+]=[N-]", "note": "(stereo not drawn)", "values": [{"measurement": "logP", "setting": "[10]", "value": 1.11}]}, {"smiles": "CCCCCCCC/C=C\\CCCCCCCC(=O)NCc1ccc(O)c(OC)c1", "values": [{"measurement": "logD", "setting": "[11]", "value": 8.02}]}, {"smiles": "O=C(OCC1C2CC3CCC1N3CC2=Cc1ccc(I)c(Cl)c1)c1ccccc1", "note": "(stereo not drawn)", "values": [{"measurement": "logP", "setting": "[12]", "value": 6.41}]}, {"smiles": "C=C1CC[C@@H]2[C@](C)(CO[C@@H]3O[C@H](CO)[C@@H](O)[C@H](O)[C@H]3O)CCC[C@@]2(C)[C@@H]1CCC1=CCOC1=O", "values": [{"measurement": "logD", "setting": "[13]", "value": 0.44}]}, {"smiles": "C#CCN(Cc1ccc2[nH]c(C)nc(=O)c2c1)c1ccc(C(=O)NCc2cccc([N+](=O)[O-])c2)cc1", "values": [{"measurement": "logP", "setting": "[14]", "value": 3.7}]}, {"smiles": "CCN(CC)C(=O)COC(=O)C1OC(Oc2cc3oc(-c4ccc(O)cc4)cc(=O)c3c(O)c2O)C(O)C(O)C1O", "note": "(stereo not drawn)", "values": [{"measurement": "logD", "setting": "[15]", "value": 1.48}]}, {"smiles": "CCN1CCN(S(=O)(=O)c2cnc(O)c(-c3nc4c5n(nc4c(=O)[nH]3)CCCC5CCOC)c2)CC1", "note": "(stereo not drawn)", "values": [{"measurement": "logD", "setting": "[16]", "value": 1.6}]}, {"smiles": "C[C@@H]1O[C@@H](O[C@@H]2[C@@H](O)[C@H](O)[C@@H](CO)O[C@H]2c2c(O)cc(O)c3c(=O)cc(-c4ccc(O)cc4)oc23)[C@H](O)[C@H](O)[C@H]1O", "values": [{"measurement": "logP", "setting": "[17]", "value": -0.92}]}, {"smiles": "C[C@]12CC[C@H]3[C@@H](CCC4=CC(=O)CC[C@@]43C)[C@@H]1CC[C@@H]2OC(=O)CCC(=O)O", "values": [{"measurement": "logP", "setting": "[18]", "value": 3.55}]}, {"smiles": "Cc1ccc(CCOCCCS(=O)(=O)CCNCCc2ccc(O)c3[nH]c(=O)sc23)cc1-c1nccs1", "values": [{"measurement": "logD", "setting": "[19]", "value": 1.44}]}, {"smiles": "COC(=O)CC(O)CC(O)C=Cn1c(C(C)C)nc(-c2cccc(Br)c2)c1-c1ccc(F)cc1", "note": "(stereo not drawn)", "values": [{"measurement": "logP", "setting": "[20]", "value": 2.8}]}, {"smiles": "CCC1(C)C2CN(Cc3ccccc3)CC1CN(CC1CCCCC1)C2", "note": "(stereo not drawn)", "values": [{"measurement": "logP", "setting": "[21]", "value": 6.65}]}, {"smiles": "CC(=O)O[C@]1(C(C)=O)CC[C@H]2[C@@H]3CCC4=CC(=O)CC[C@]4(C)[C@H]3CC[C@@]21C", "values": [{"measurement": "logP", "setting": "[22]", "value": 3.79}]}, {"smiles": "CC1C=C(C(=O)Nc2ccc(-c3ccccc3S(N)(=O)=O)cc2)N(c2ccc3ccnc(N)c3c2)N1", "note": "(stereo not drawn)", "values": [{"measurement": "logP", "setting": "[23]", "value": 2.6}]}, {"smiles": "CC(C)C(Nc1ccc(C(F)(F)F)cc1Cl)C(=O)OC(C#N)c1cccc(Oc2ccccc2)c1", "note": "(racemic)", "values": [{"measurement": "logP", "setting": "[24]", "value": 5.5}]}, {"smiles": "CN1CN(c2ccccc2)C2(CCN(CCCC(=O)c3ccc(F)cc3)CC2)C1=O", "values": [{"measurement": "logP", "setting": "[25]", "value": 3.37}]}, {"smiles": "C[C@H](CCC(=O)NCC(=O)O)[C@H]1CC[C@H]2[C@@H]3C[C@H](O)[C@@H]4C[C@H](O)CC[C@]4(C)[C@H]3CC[C@]12C", "values": [{"measurement": "logD", "setting": "[26]", "value": 2.15}]}, {"smiles": "CCCN(CCCCN1C(=O)CC2(CCCC2)C(O)C1=O)C1COc2cccc(OC)c2C1", "note": "(stereo not drawn)", "values": [{"measurement": "logP", "setting": "[27]", "value": 4.1}]}, {"smiles": "CC[C@H](C)C(=O)O[C@H]1C[C@@H](C)C=C2C=C[C@H](C)[C@H](CC[C@@H]3C[C@@H](O)CC(=O)O3)[C@H]21", "values": [{"measurement": "logD", "setting": "[28]", "value": 4.04}]}, {"smiles": "CCc1cccc2c3c([nH]c12)C(CC)(CC(=O)N[C@@H](C=O)[C@@H](O)[C@H](O)[C@H](O)CO)OCC3", "note": "(stereo partly drawn)", "values": [{"measurement": "logD", "setting": "[29]", "value": 1.35}]}, {"smiles": "O=C(NO)C1CC(O)CN1C(=O)c1ccc(C#Cc2ccc(OCCCCCF)cc2)cc1", "note": "(stereo not drawn)", "values": [{"measurement": "logD", "setting": "[30]", "value": 2.5}]}, {"smiles": "COc1ccc2cccc(N3CCN(CCNC(=O)c4ccc(F)cc4)CC3)c2c1", "values": [{"measurement": "logD", "setting": "[31]", "value": 4.14}]}, {"smiles": "COc1ccccc1C(c1cc2ccccc2oc1=O)c1cc2ccccc2oc1=O", "values": [{"measurement": "logD", "setting": "[32]", "value": 2.5}]}, {"smiles": "Cc1cn(C2CC(N=[N+]=[N-])C(COP(=O)(OCc3ccc(Cl)cc3)OCC3OC(n4cc(C)c(=O)[nH]c4=O)CC3N=[N+]=[N-])O2)c(=O)[nH]c1=O", "note": "(stereo not drawn)", "values": [{"measurement": "logP", "setting": "[33]", "value": 2.06}]}, {"smiles": "CC(C)(C)OC(=O)NC(Cc1ccccc1)C(=O)N1CCCC1C(=O)NCc1ccc(N)cc1", "note": "(stereo not drawn)", "values": [{"measurement": "logP", "setting": "[34]", "value": 2.34}]}, {"smiles": "CC[C@H](C)C(=O)O[C@H]1C[C@H](O)C=C2C=C[C@H](C)[C@H](CC[C@@H]3C[C@@H](O)CC(=O)O3)[C@H]21", "values": [{"measurement": "logD", "setting": "[35]", "value": 2.45}]}, {"smiles": "CCC12C=C(C(=O)OCCOC(C)=O)n3c4c(c5ccccc53)CCN(CCC1)C42", "note": "(stereo not drawn)", "values": [{"measurement": "logP", "setting": "[36]", "value": 4.5}]}, {"smiles": "CCCCCCCOc1cccc(NC(=O)OC2CCCCC2n2ccnc2)c1", "note": "(stereo not drawn)", "values": [{"measurement": "logD", "setting": "[37]", "value": 5.64}]}]}
